Source: patent publication US4386103A, “Dichloroamino acid derivatives useful as potent germicidal and fungicidal agents” (Merck & Co., Inc., priority 1981, dated 1983)

Experiments:
Assay type in all cases: cell-based
Bacillus subtilis = assay: Contact germicidal screen, Bacillus subtilis ATCC No. 60511
Protocol: (§1) The organisms used in the contact germicidal screen are all maintained as stock cultures on nutrient agar […] 4° C. They are transferred and biochemically diagnosed monthly. The five organisms used are: The media used are: […] Overnight cultures of the test organisms are grown in tryptose phosphate broth. After 15-16 hours, the cultures are centrifuged at […] for 15 minutes, and the supernatant replaced with fresh warm (37° C.) media. After two hours of incubation, the absorbance of the culture at 650 nm is determined and diluted with nutrient broth to 1×10^7 colony forming units per ml (using a previous determined standard curve: colony forming units/ml vs. absorbance at 650). The diluted cultures are maintained at 4°-8° C. throughout the screen. The compounds are weighed into sterile 100 ml volumetric flasks, and immediately before screening dissolved in one of the following buffers: 0.1 M NaOAc pH 4.6 or 0.1 M NaH2 PO4 pH 7.0. If solubility poses a problem, 10-30% methanol is used to effect solution. Two denaturing agents are also tested: […] Horse Serum restored with 100 ml distilled water and 10% Trition×100. When used, 2.5 ml of the denaturing agent is mixed with 2.5 ml of double strength test solution thirty minutes before the bacterial suspension is added. The screen is initiated when 0.2 ml of the bacterial suspension is added to 5.0 ml of the test solution contained in a sterile 25 ml glass stoppered flask. At intervals of 0.5, 2.5, 5.0, 10.0 and 15.0 minutes, a loopful of the inoculated test solution is subcultured into 5 ml of sterile nutrient broth and mixed with a vortex, the high dilution serving to stop the action of the compound. All of the subculture tubes are incubated at 37° C. and checked for signs of growth by turbidity at 1, 3, 5 and 7 days. The earliest subculture time at which no growth is present is considered the endpoint and is recorded as the sterilization time. An aliquot of 0.2 ml of the diluted culture is transferred to 5 ml of buffer to simulate 0.2 ml in 5 ml of test solution. (a) Purity: A loopful of the inoculated buffer is streaked onto nutrient agar to check colony morphology and lack of contaminants. (b) Viability: A loopful of the inoculated buffer is subcultured to 5 ml of nutrient broth as in the screen and incubated at 37° C. for 24 hours. (c) Dilution of the Test Solution: A loopful of the test solution is transferred to a 5 ml tube of nutrient broth, and a loopful of the inoculated buffer is transferred to the same tube of broth. […] (d) Purity of Organisms in the Test Solution: After the 15 minute subculture, a loopful of the inoculated test solution is streaked onto nutrient agar to insure that contamination has not occurred during the screen. (e) lack of Bactericidal Activity of Buffers and Other Solvents: Before a buffer or other solvent is used as a diluent, it is screened against the five organisms to insure that the buffer or solvent has no antibacterial activity itself.

Salmonella typhimurium = assay: Contact germicidal screen, Salmonella typhimurium ATCC No. 13311
Protocol: as §1

Aspergillus fumigatus = assay: Contact fungicidal screen, Aspergillus fumigatus; settings: 0.1M NaOAc pH 4.6
Protocol: The organisms used in the Contact Fungicidal Screen are a dermatophyte, trychophyton mentagrophytes, frequently associated with athlete's foot; a yeast, Candida albican, causative agent of thrush and vaginitis; a phycomycete, Rhizopus oryzae, commonly known as black bread mold; an ascomycete, Aspergillus fumagatis, found in chicken droppings and causing lung infections; and another dermatophyte, Microsporum canis, which causes ringworm. These organisms are maintained as stock cultures at 4° C. on agar […] of the following composition: dextrose 2%, Neopeptone (Difco) 1%, agar 2%. Fluid medium of the same nutrient composition (without agar) was used to test the viability of the organisms after exposure to the fungicide. This medium is also known as Sabouraud's medium. Sabouraud's agar plate cultures of Aspergillus fumigatus, Microsporum canis, and a different culture of Trychophyton mentagrophytes are prepared by planting an inoculum at the center of an agar plate and incubating at 25°-30° C. for seven to ten days. The mycelial mats are removed from the surface of the agar and prepared in the same manner as the Rhizopus culture. The compounds are weighed into heat sterilized 100 ml volumetric flasks and immediately before screening dissolved in 0.1 M NaOAc pH 4.6 buffer (test solutions). The Aspergillus, Candida, Microsporum and Rhizopus species are screened in a slightly different manner. Basically, the procedure for the Contact Germicidal Efficiency Screen is utilized. After the test solutions are made up, 5 ml aliquots are pipetted into heat sterilized 25 ml glass stoppered erlenmeyer flasks. The screen is initiated when 0.5 ml of the 5×10^6 cell (spore) per ml suspension is added to the flask containing 5 ml of the test solution. […] The subculture tubes are incubated at 25°-30° C. for ten days with daily observation for mycelial growth. The earliest subculture time at which no growth is present is considered the endpoint and is recorded as the sterilization time. To insure the viability of the culture, a 0.5 ml aliquot of the 5×10^6 cells (spores) per ml suspension is transferred to 5 ml of the pH 4.6 buffer. A loopful of the inoculated buffer is then subcultured to 7 ml of fluid Sabouraud's medium and incubated at 25°-30° C. for ten days. To insure that the dilution of the test solution into the subculture medium does stop the action, a loopful of the test solution and a loopful of the inoculated buffer are transferred into the same subculture tube. This tube is also incubated at 25°-30° C. for ten days.

[1] = 10.0+ PPM, 0.1M NaOAc pH 4.6, screened simultaneously with four other compounds
[2] = 291.4 PPM, Triton X100 (10% solution):pH 4.6 buffer 1:1
[3] = 291.4 PPM, horse serum:pH 4.6 buffer 1:1
[4] = 300 PPM with 50% Horse Serum, 0.1M NaOAc pH 4.6
[5] = 300 PPM with 50% Triton X100, 0.1M NaOAc pH 4.6
[6] = 1000 PPM with 50% Horse Serum, 0.1M NaOAc pH 4.6
[7] = 1024.4 PPM, 0.1M NaH2PO4 pH 7.0
[8] = 1042.0 PPM, horse serum:pH 4.6 buffer 1:1
[9] = 51.0 PPM, Triton X100 (10% solution):pH 4.6 buffer 1:1
[10] = 51.0 PPM, horse serum:pH 4.6 buffer 1:1
[11] = 300 PPM, pH 4.6 buffer with 10% serum
[12] = 300 PPM, pH 4.6 buffer with 20% serum
[13] = 300 PPM, pH 4.6 buffer with 35% serum
[14] = 304.6 PPM, horse serum:pH 4.6 buffer 1:1
[15] = 304.8 PPM, Triton X100 (10% solution):pH 4.6 buffer 1:1
[16] = 606.9 PPM, pH 4.6 buffer with 33% serum
[17] = 899.25 PPM, pH 4.6 buffer with 25% serum
[18] = 1001.2 PPM, horse serum:pH 4.6 buffer 1:1
[19] = 1016.0 PPM, 0.1M NaH2PO4 pH 7.0

## CC(C)(COC(=O)CCCC(=O)O)N(Cl)Cl [(V), 2-dichloramino-2-methylpropyl-hemiglutarate]
Bacillus subtilis; [1]
  Sterilization Time: 2.5 min
Bacillus subtilis; 10.0 PPM, 0.1M NaH2PO4 pH 7.0
  Sterilization Time: 15 min
Bacillus subtilis; 10 PPM, 0.1M NaOAc pH 4.6
  Sterilization Time (summary): 2.5 min
Bacillus subtilis; 10.0 PPM, 0.1M NaOAc pH 4.6
  Sterilization Time: 5.0 min
Bacillus subtilis; 99.1 PPM, 0.1M NaOAc pH 4.6
  Sterilization Time: 2.5 min
Bacillus subtilis; 100 PPM, 0.1M NaOAc pH 4.6
  Sterilization Time (summary): 2.5 min
Bacillus subtilis; 106.7 PPM, 0.1M NaH2PO4 pH 7.0
  Sterilization Time: 10.0 min
Bacillus subtilis; [2]
  Sterilization Time: 0.5 min
Bacillus subtilis; [3]
  Sterilization Time: 5.0 min
Bacillus subtilis; [4]
  Sterilization Time (summary): 5.0 min
Bacillus subtilis; [5]
  Sterilization Time (summary): 0.5 min
Bacillus subtilis; 911.8 PPM, 0.1M NaOAc pH 4.6
  Sterilization Time: 0.5 min
Bacillus subtilis; [6]
  Sterilization Time (summary): 0.5 min
Bacillus subtilis; 1000 PPM, 0.1M NaOAc pH 4.6
  Sterilization Time (summary): 0.5 min
Bacillus subtilis; [7]
  Sterilization Time: 2.5 min
Bacillus subtilis; [8]
  Sterilization Time: 0.5 min
Salmonella typhimurium; [1]
  Sterilization Time: 2.5 min
Salmonella typhimurium; 10.0 PPM, 0.1M NaH2PO4 pH 7.0
  Sterilization Time: 15 min
Salmonella typhimurium; 10 PPM, 0.1M NaOAc pH 4.6
  Sterilization Time (summary): 2.5 min
Salmonella typhimurium; 10.0 PPM, 0.1M NaOAc pH 4.6
  Sterilization Time: 5.0 min
Salmonella typhimurium; 99.1 PPM, 0.1M NaOAc pH 4.6
  Sterilization Time: 0.5 min
Salmonella typhimurium; 100 PPM, 0.1M NaOAc pH 4.6
  Sterilization Time (summary): 0.5 min
Salmonella typhimurium; 106.7 PPM, 0.1M NaH2PO4 pH 7.0
  Sterilization Time: 15 min
Salmonella typhimurium; [2]
  Sterilization Time: 0.5 min
Salmonella typhimurium; [3]
  Sterilization Time: 10.0 min
Salmonella typhimurium; [4]
  Sterilization Time (summary): 10.0 min
Salmonella typhimurium; [5]
  Sterilization Time (summary): 0.5 min
Salmonella typhimurium; 911.8 PPM, 0.1M NaOAc pH 4.6
  Sterilization Time: 0.5 min
Salmonella typhimurium; [6]
  Sterilization Time (summary): 2.5 min
Salmonella typhimurium; 1000 PPM, 0.1M NaOAc pH 4.6
  Sterilization Time (summary): 0.5 min
Salmonella typhimurium; [7]
  Sterilization Time: 5.0 min
Salmonella typhimurium; [8]
  Sterilization Time: 2.5 min
Aspergillus fumigatus; 10 PPM
  Sterilization Time: 15 min
Aspergillus fumigatus; 100 PPM
  Sterilization Time: 15 min
Aspergillus fumigatus; 1000 PPM
  Sterilization Time: 15 min

## CC(C)(CC(=O)O)N(Cl)Cl [(II)]
Bacillus subtilis; 1.8 PPM, 0.1M NaOAc pH 4.6
  Sterilization Time: 5.0 min
Bacillus subtilis; 4.5 PPM, 0.1M NaOAc pH 4.6
  Sterilization Time: 2.5 min
Bacillus subtilis; [1]
  Sterilization Time: 2.5 min
Bacillus subtilis; 10 PPM, 0.1M NaOAc pH 4.6
  Sterilization Time (summary): 2.5 min
Bacillus subtilis; 10.0 PPM, 0.1M NaOAc pH 4.6
  Sterilization Time: 2.5 min
Bacillus subtilis; 12.2 PPM, 0.1M NaOAc pH 4.6
  Sterilization Time: 2.5 min
Bacillus subtilis; 32.1 PPM, 0.1M NaOAc pH 4.6
  Sterilization Time: 0.5 min
Bacillus subtilis; [9]
  Sterilization Time: 0.5 min
Bacillus subtilis; [10]
  Sterilization Time: 15 min
Bacillus subtilis; 71.7 PPM, 0.1M NaOAc pH 4.6
  Sterilization Time: 0.5 min
Bacillus subtilis; 100 PPM, 0.1M NaOAc pH 4.6
  Sterilization Time (summary): 0.5 min
Bacillus subtilis; 104.7 PPM, 0.1M NaOAc pH 4.6
  Sterilization Time: 0.5 min
Bacillus subtilis; 107.8 PPM, 0.1M NaH2PO4 pH 7.0
  Sterilization Time: 5.0 min
Bacillus subtilis; 298.9 PPM, 0.1M NaOAc pH 4.6
  Sterilization Time: 0.5 min
Bacillus subtilis; [4]
  Sterilization Time (summary): 2.5 min
Bacillus subtilis; [5]
  Sterilization Time (summary): 0.5 min
Bacillus subtilis; [11]
  Sterilization Time: 0.5 min
Bacillus subtilis; [12]
  Sterilization Time: 0.5 min
Bacillus subtilis; [13]
  Sterilization Time: 2.5 min
Bacillus subtilis; [14]
  Sterilization Time: 2.5 min
Bacillus subtilis; [15]
  Sterilization Time: 0.5 min
Bacillus subtilis; 316.6 PPM, 0.1M NaH2PO4 pH 7.0
  Sterilization Time: 2.5 min
Bacillus subtilis; [16]
  Sterilization Time: 0.5 min
Bacillus subtilis; [17]
  Sterilization Time: 0.5 min
Bacillus subtilis; [6]
  Sterilization Time (summary): 0.5 min
Bacillus subtilis; 1000 PPM, 0.1M NaOAc pH 4.6
  Sterilization Time (summary): 0.5 min
Bacillus subtilis; [18]
  Sterilization Time: 0.5 min
Bacillus subtilis; 1014.8 PPM, 0.1M NaOAc pH 4.6
  Sterilization Time: 0.5 min
Bacillus subtilis; [19]
  Sterilization Time: 0.5 min
Salmonella typhimurium; 1.8 PPM, 0.1M NaOAc pH 4.6
  Sterilization Time: 5.0 min
Salmonella typhimurium; 4.5 PPM, 0.1M NaOAc pH 4.6
  Sterilization Time: 2.5 min
Salmonella typhimurium; [1]
  Sterilization Time: 0.5 min
Salmonella typhimurium; 10 PPM, 0.1M NaOAc pH 4.6
  Sterilization Time (summary): 0.5 min
Salmonella typhimurium; 10.0 PPM, 0.1M NaOAc pH 4.6
  Sterilization Time: 0.5 min
Salmonella typhimurium; 12.2 PPM, 0.1M NaOAc pH 4.6
  Sterilization Time: 0.5 min
Salmonella typhimurium; 32.1 PPM, 0.1M NaOAc pH 4.6
  Sterilization Time: 0.5 min
Salmonella typhimurium; [9]
  Sterilization Time: 0.5 min
Salmonella typhimurium; [10]
  Sterilization Time: 15 min
Salmonella typhimurium; 71.7 PPM, 0.1M NaOAc pH 4.6
  Sterilization Time: 0.5 min
Salmonella typhimurium; 100 PPM, 0.1M NaOAc pH 4.6
  Sterilization Time (summary): 0.5 min
Salmonella typhimurium; 104.7 PPM, 0.1M NaOAc pH 4.6
  Sterilization Time: 0.5 min
Salmonella typhimurium; 107.8 PPM, 0.1M NaH2PO4 pH 7.0
  Sterilization Time: 2.5 min
Salmonella typhimurium; 298.9 PPM, 0.1M NaOAc pH 4.6
  Sterilization Time: 0.5 min
Salmonella typhimurium; [4]
  Sterilization Time (summary): 2.5 min
Salmonella typhimurium; [5]
  Sterilization Time (summary): 0.5 min
Salmonella typhimurium; [11]
  Sterilization Time: 0.5 min
Salmonella typhimurium; [12]
  Sterilization Time: 0.5 min
Salmonella typhimurium; [13]
  Sterilization Time: 2.5 min
Salmonella typhimurium; [14]
  Sterilization Time: 2.5 min
Salmonella typhimurium; [15]
  Sterilization Time: 0.5 min
Salmonella typhimurium; 316.6 PPM, 0.1M NaH2PO4 pH 7.0
  Sterilization Time: 2.5 min
Salmonella typhimurium; [16]
  Sterilization Time: 0.5 min
Salmonella typhimurium; [17]
  Sterilization Time: 0.5 min
Salmonella typhimurium; [6]
  Sterilization Time (summary): 0.5 min
Salmonella typhimurium; 1000 PPM, 0.1M NaOAc pH 4.6
  Sterilization Time (summary): 0.5 min
Salmonella typhimurium; [18]
  Sterilization Time: 0.5 min
Salmonella typhimurium; 1014.8 PPM, 0.1M NaOAc pH 4.6
  Sterilization Time: 0.5 min
Salmonella typhimurium; [19]
  Sterilization Time: 0.5 min
Aspergillus fumigatus; 10 PPM
  Sterilization Time: 15 min
Aspergillus fumigatus; 100 PPM
  Sterilization Time: 15 min
Aspergillus fumigatus; 1000 PPM
  Sterilization Time: 15 min
